Assay results from patent US11208675B2, “Reaction accelerating agent” (Kikkoman Corporation, priority 2016, dated 2021).

What was measured:
[1] = molecular target: T1, peroxidase PEO-301 (Toyobo Co., Ltd.) (Armoracia rusticana, UniProt P00433); experiment: Hydrogen peroxide detection reaction mediated by peroxidase, completed using an excess of peroxidase (Example 1); assay type: biochemical; conditions: 0.067 U/ml peroxidase, 0.48% (w/v) compound in second reagent, 0.00012% (w/v) hydrogen peroxide, DA-67, pH 6.5, 37° C.; for ΔA9 min: ΔA of A694/751, 9 minutes after mixing second reagent with first reagent-A; for ΔA10 min: ΔA of A694/751, 10 minutes after mixing second reagent with first reagent-A (defined as ΔA100%)
T1 construct: purchased Toyobo Co., Ltd. PEO-301
T1 sequence (P00433 31-338): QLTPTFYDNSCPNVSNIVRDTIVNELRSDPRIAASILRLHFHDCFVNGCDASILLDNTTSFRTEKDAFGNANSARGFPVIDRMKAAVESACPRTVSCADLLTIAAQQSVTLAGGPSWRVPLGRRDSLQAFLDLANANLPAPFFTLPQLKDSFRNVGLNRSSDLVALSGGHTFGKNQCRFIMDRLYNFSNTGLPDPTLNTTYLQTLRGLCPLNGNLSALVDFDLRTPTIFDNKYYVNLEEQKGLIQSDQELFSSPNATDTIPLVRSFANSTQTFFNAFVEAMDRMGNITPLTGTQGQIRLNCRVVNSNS
Procedure: In this Example the amount of change in absorbance was determined when hydrogen peroxide detection reaction was completed using an excess of peroxidase.
A reagent for hydrogen peroxide measurement having the following composition (formulation) was prepared, and the measurement of hydrogen peroxide was carried out using Bio Majesty JCA-BM1650 (manufactured by JEOL Ltd.).
(§1) 100 mM MOPS-NaOH buffer solution, pH 6.5
(§2) 0.00012% (w/v) hydrogen peroxide
(§3) 30 mM MOPS-NaOH buffer solution, pH 6.5
(§4) 0.2% (w/v) n-dodecyl-β-D-maltoside (manufactured by Dojindo Laboratories)
0.067 U/ml peroxidase PEO-301 (Toyobo Co., Ltd.)
(§5) 0.023 mM 10-(carboxymethylaminocarbonyl)-3,7-bis(dimethylamino)phenothiazine sodium (DA-67, manufactured by Wako Pure Chemical Industries, Ltd.)
0.48% (w/v) of the compound of Comparative Example 2 (Wako Pure Chemical Industries, Ltd.), any one compound of the present invention (all from Tokyo Chemical Industry Co., Ltd.), or compound-free (Comparative Example 1) ion-exchange water as shown in Table 1
(§6) 8 μl of the second reagent was added to 96 μl of the first reagent-A, and the mixture was incubated at 37° C. for 5 minutes. Then, 24 μl of the sample was added thereto, and the quantitative reaction of hydrogen peroxide was allowed to progress at 37° C. for 5 minutes. The absorbance (A694 and A751) of the reaction solution for light at wavelengths of 694 nm and 751 nm was measured over time for 10 minutes after the mixing of the second reagent with the first reagent-A to determine the value of subtraction of A751 from A694, i.e., the value of A694/751. Subsequently, ΔA was calculated by subtracting, from A694/751, the value of (104/128) times A694/751 4.8 minutes after the mixing of the second reagent with the first reagent-A. Incidentally, 4.8 minutes after the mixing of the second reagent with the first reagent-A represents the time immediately before the addition of the sample. ΔA 9 minutes and 10 minutes after the mixing of the second reagent with the first reagent-A (ΔA9 min and ΔA10 min) is shown in Table 1.
In other words, it can be understood that the quantitative reaction of hydrogen peroxide was completed in 10 minutes after the mixing of the second reagent with the first reagent-A. Accordingly, ΔA10 min in each Comparative Example or the present invention was defined as ΔA when 100% of the quantitative reaction of hydrogen peroxide progressed under each condition (ΔA100%).

[2] = molecular target: T1, peroxidase PEO-301 (Toyobo Co., Ltd.); experiment: Acceleration of hydrogen peroxide detection reaction mediated by peroxidase, using a small amount of peroxidase (Example 2); assay type: biochemical; conditions: 0.013 U/ml peroxidase; for acceleration of hydrogen peroxide detection reaction using peroxidase: as shown in Table 2, compared with not added; for Degree of progression of reaction (%) after 7.5 minutes / Degree of progression of reaction (%) after 10 minutes: ΔA divided by ΔA100%, 0.48% (w/v) compound in second reagent, 37° C.; for Degree of progression of reaction (%) after 7.5 minutes: 7.5 minutes after mixing second reagent with first reagent-B (2.5 minutes after addition of sample); for Degree of progression of reaction (%) after 10 minutes: 10 minutes after mixing second reagent with first reagent-B (5 minutes after addition of sample)
Procedure: Next, in this Example, the degree of acceleration of hydrogen peroxide detection reaction by the compound of the present invention was determined using a small amount of peroxidase.
A reagent for Hydrogen peroxide measurement having the following composition was prepared, and the measurement of hydrogen peroxide was carried out using Bio Majesty JCA-BM1650 (manufactured by JEOL Ltd.).
as §1, §2, §3, §4
0.013 U/ml peroxidase PEO-301 (Toyobo Co., Ltd.)
as §5
0.48% (w/v) of the compound of Comparative Example 2, any one compound of the present invention, or compound-free (Comparative Example 1) ion-exchange water as shown in Table 2
as §6, with “reagent-B,” for “reagent-A,”, “reagent-B” for “reagent-A”, “reagent-B.” for “reagent-A.”, “sample.” for “sample. ΔA 9 minutes and 10 minutes after the mixing of the second reagent with the first reagent-A (ΔA9 min and ΔA10 min) is shown in Table 1.”
Next, ΔA calculated in this Example was divided by ΔA100% defined in Example 1 to calculate the degree of progression of hydrogen peroxide detection reaction. The degree of progression of hydrogen peroxide detection reaction 7.5 and 10 minutes after the mixing of the second reagent with the first reagent-B (in other words, 2.5 and 5 minutes, respectively, after the addition of the sample) is shown in Table 2.

Row | Compound | ΔA9 min [1] | ΔA10 min [1] | acceleration of hydrogen peroxide detection reaction using peroxidase [2] | Degree of progression of reaction (%) after 7.5 minutes [2] | Degree of progression of reaction (%) after 10 minutes [2]
1 | O=C(O)c1cc2ccccc2c(N=Nc2c(O)cc(S(=O)(=O)O)c3ccccc23)c1O [2-hydroxy-1-(2-hydroxy-4-sulfo-1-naphthylazo)-3-naphthoic acid] | 0.084 | 0.085 | accelerated | 61% | 90%
2 | Oc1ccc(N=Nc2ccccc2)cc1 [4-(Phenylazo)phenol, 4-(phenylazo)phenol] | 0.122 | 0.122 | accelerated | 69% | 90%
3 | O=C([O-])c1cc(N=Nc2cccc([N+](=O)[O-])c2)ccc1O.[Na+] [Alizarin Yellow GG] | 0.170 | 0.170 | accelerated | 64% | 89%
4 | COc1cc(N=Nc2cccc(S(=O)(=O)[O-])c2)ccc1NC(=O)Nc1ccc(N=Nc2ccc(O)c(C(=O)[O-])c2)cc1.[Na+].[Na+] [Direct Yellow 44] | 0.228 | 0.228 | accelerated | 64% | 89%
5 | O=C([O-])C1=NN(c2ccc(S(=O)(=O)[O-])cc2)C(=O)C1N=Nc1ccc(S(=O)(=O)[O-])cc1.[Na+].[Na+].[Na+] (stereo not drawn) [Tartrazine, reference compound] | 0.344 | 0.344 | accelerated | 57% | 85%
6 | Chrome Yellow | 0.272 | 0.272 | accelerated | 66% | 92%
